Assay results as given in patent US20030228627A1, “Assay for p53 function in cells” (priority 2002, published 2003).
Each block holds one compound with its values, some of them ahead of it.

Assays:
p21 promoter [1] = assay: Chromatin immunoprecipitation (ChIP) in U2OS cells after DNA damage, p21 promoter; type: cell-based, human
From the text: To address this issue, a chromatin immunoprecipitation (ChIPs) technique was used to examine the temporal order of interaction of a variety of transcription proteins to individual p53-responsive promoters that control cell cycle arrest and apoptosis before and after DNA damage by two different damaging agents. […] For example, before damage the p21 promoter is already poised for transcription by containing bound RNA polymerase II, TATA binding protein (TBP), TFIIB, and TFIIH.
U2OS cells were grown to 50-60% confluency and treated either with UV-C or doxorubicin, (constant presence in media) for various times before crosslinking. After aspirating the media and washing with phosphate-buffered saline (PBS), cells were crosslinked with a 1% formaldehyde solution in 1×PBS for 15 min at room temperature. Crosslinking was stopped by addition of glycine to 125 mM final concentration. Monolayers were washed twice with cold PBS and harvested in radioimmunoprecipitation assay (RIPA) buffer [150 mM NaCl, 1% v/v Nonidet P-40, 0.5% w/v deoxycholate, 0.1% w/v SDS, 50 mM Tris pH 8, 5 mM EDTA, protease inhibitor cocktail, phosphatase inhibitors (20 mM NaF/0.2 mM sodium orthovanadate), deacetylase inhibitors (5 μM trichostatin A/5 mM sodium butyrate) and 0.5 mM PMSF] to generate a suspension of 10 million cells/ml. Suspensions were sonicated to generate DNA fragments below 500 bp and clarified by centrifugation for 10 min at 12000 g. Protein solutions were quantified for protein and DNA content and adjusted to 1 mg/ml of protein.
For immunoprecipitation, 1 mg of protein extract was pre-cleared for 2 hrs with 40 μl of a 50% slurry of 50:50 proteinA:proteinG sepharose before addition of indicated antibodies. Antibody (Ab) sources: DO1 (anti-total p53, Oncogene), S15P (anti-Serine 15-phospho-p53, Cell Signaling), AcH4 (Upstate), anti-TAF250 (R. Tjian), anti-TFIIB, -TBP, -RNApol II, -TFIIH (Santa Cruz), anti-serine 2-phospho-RNApol II and anti-serine 5-phospho-RNApol II (Covance). […]
DNA was precipitated and used as template in semi-quantitative PCR reactions. […]

p21 promoter [2] = assay: DNase I footprinting of chromatin and DNA (p21-LUC plasmid); type: binding, human; conditions: DNase I footprinting on p21 promoter DNA or chromatin
Protocol: To analyze the mechanism by which p300 mediates p53-dependent activation, DNase I chromatin footprinting assays were performed to examine the occupancy of the 5′ and 3′ sites of the p21 promoter under conditions of transcriptional coactivation. Chromatin assembly and factor incubation steps were performed as described above, but the samples were split into three aliquots just before the in vitro transcription reaction. One aliquot was subjected to DNase I digestion, the second was transcribed, and the third was analyzed by Western blot to determine the acetylation status of p53.
DNA footprinting experiments were performed with chromatin-assembled p21 promoters after ATP depletion and purification by gel filtration using nonsaturating amounts of p53.
DNase I footprinting was done using three different templates: crude chromatin-assembled mixtures, CL4B-purified chromatin, and naked DNA. […] After incubation of the different templates with the proteins, samples were digested with 33 U/ml (crude chromatin), 1.5 U/ml (purified chromatin) or 0.1 U/ml (naked DNA) DNase I (Boehringer Mannheim) for 75 s at 25° C. Purified DNA fragments were analyzed by primer extension.

p21 promoter 5′ site = assay: Electrophoretic Mobility Shift Assay (EMSA) of p53 binding to DNA containing the 5′ site of the p21 promoter; design: species or system human; conditions: compared with the acetylated form of wild-type p53
From the text: Both probes were ^32P end-labeled using T4 polynucleotide kinase and further purified by 12%-15% polyacrylamide native gels.

[3] = system: chromatin-assembled p21 promoter; assay: In vitro transcription of the chromatin-assembled p21-LUC template with HeLa cell nuclear extract; type: biochemical, human
Protocol: The p21-LUC chromatin template was subjected to in vitro transcription reactions using HeLa cell nuclear extracts as a source of basal initiation components in the presence or absence of p53 and/or p300, as described in the protocol depicted in FIG. 1B. Both factors were added after chromatin assembly was complete (“post assembly”) and incubated with the template prior to in vitro transcription. Addition of p53 alone produced very modest transcriptional activation. […] Neither p53 nor p300 appreciably influenced transcription of naked DNA templates. Identical results were obtained using extracts from another cell line, erythroid K562. Thus, transcriptional activation from the chromatin-assembled p21 promoter in vitro requires p53, acting at a distance of at least 1.38 kb, in combination with a histone acetyl transferase cofactor, p300.
Chromatin was reconstituted using Drosophila embryonic extracts as described (Bulger, M. and Kadonaga, J. 1994 Methods Mol Genet 5:242-262). After assembly, the chromatin template (500 ng of DNA in 50 μl) was incubated with p53 and/or p300 (typically between 0.2-10 pmol of p53 and 0.2-0.5 pmol of p300), for 30 min at 27° C. For transcription, 20 μl of HeLa cell nuclear extract (typically 8 mg/ml) was added and incubated on ice for 10 min, then reactions proceeded as described (Kadam, S. et al. 2000 Genes & Dev 14:2441-2451). The purified RNA was analyzed by primer extension analysis with primers specific to luciferase and -globin gene (used as an internal control) sequences.

[4] = system: chromatin-assembled p21 promoter; assay: In vitro chromatin immunoprecipitation with anti-acetyl-H4 antibodies; type: biochemical, human; conditions: p53 and p300
Protocol: To determine whether p53 influenced the localization of nucleosome acetylation on the p21 promoter by direct recruitment of p300, in vitro chromatin immunoprecipitation assays were performed. p21 promoters were assembled into chromatin using purified components and incubated with p53 and/or p300. Chromatin was digested with micrococcal nuclease and acetylated oligonucleosomes were immunoprecipitated using anti-acetyl-H4 antibodies. Specific p21 plasmid sequences in the immunoprecipitates were detected by PCR amplification or Southern blot. Identical results were obtained from both assays. […] The extent of increased acetylation in different regions of the p21-LUC plasmid varied from 3.4-fold near the 3′ p53 binding site to 1.4-fold in a distal region located 2 kb downstream of the proximal promoter. […] The following decreasing levels of acetylation were found: 3′ site>TATA box=5′ site>>+2 kb.
Chromatin immunoprecipitation analysis was performed using the anti-acetylated histone H4 antibody (Upstate Biotechnology) according to the manufacturer's recommendations and as previously described (Kundu, T. K. et al. 2000 Mol Cell 6:551-561) with some minor modifications, and as described in Example 2 (see below).

[5] = system: nucleosomal histones of the chromatin-assembled p21 promoter; assay: Chromatin HAT assay (3H-acetyl CoA incorporation); type: biochemical
Protocol: The quality of p21 promoter chromatin assembled in this purified system was determined by micrococcal nuclease digestion, as for embryo extracts, with similar results. The templates were then incubated with p53 and/or p300 in the presence of ^3H-acetyl CoA and the extent of acetylation monitored by incorporation of radioactivity when analyzed by SDS-PAGE and fluorography. […] A control reaction with equivalent amounts of free histones and p300 was included. Acetylation of p53 and autoacetylation of p300 was also detected.
Chromatin assembly was performed with recombinant dACF complex and NAP-1 histone chaperone as described (Ito, T. et al. 1999 Genes & Dev 13:1529-1539 and references therein). Chromatin assembly was assessed by micrococcal nuclease digestion and transcriptional repression. After assembly, proteins were added to the chromatin mixtures in the presence of 5 μM ^3H-acetyl CoA (ICN). After incubation for 1 hr at 30° C. with p53 and/or p300, reactions were stopped by boiling in SDS-PAGE loading buffer and analyzed on a 15% SDS-PAGE gel. The gel was fixed and treated with fluorography enhancing solutions (NEN Life Science). The gel was then dried and exposed to autoradiography.

Compound: COc1cccc2c1C(=O)c1c(O)c3c(c(O)c1C2=O)C[C@@](O)(C(=O)CO)C[C@@H]3O[C@H]1C[C@H](N)[C@H](O)[C@H](C)O1 [doxorubicin]
- binding of phosphorylated p53 to the p21 promoter (p21 promoter [1]): significantly increased
- recruitment of TAFII250 to the p21 promoter (p21 promoter [1]): no recruitment
- recruitment of TFIIB to the p21 promoter (p21 promoter [1]): active recruitment

- binding to the 3′ site (p21 promoter [2]): no binding
- binding to the 5′ site (p21 promoter [2]): weaker binding
- binding activity in EMSA (p21 promoter 5′ site): strongly active
Compound: p53ΔC30: C-terminal deleted form of p53, lacking the last 30 amino acid residues

Compound: p53KR: mutant p53 in which lysines 370, 372, 373, 381, and 382 within the C-terminal domain were replaced by arginine
- ability to activate transcription compared with wild-type p53 ([3]; with p300): coactivated by p300 to a similar extent as wild-type p53

Compound: p300: full-length human histidine-tagged p300, histone acetyl transferase cofactor, expressed in Sf9 cells
- extent of increased acetylation ([4]; distal region 2 kb downstream of the proximal promoter): 1.4 fold
- extent of increased acetylation ([4]; near the 3′ p53 binding site): 3.4 fold
- transcriptional activation of the chromatin template ([3]; coincubation with p53): strong synergistic de-repression
- transcriptional activation of the chromatin template ([3]; p300 alone): unable to achieve such activation
- acetylation of nucleosomal histones ([5]; both p53 and p300 present): strong acetylation
- acetylation of nucleosomal histones ([5]; p300 alone): very weak acetylation
